US12692254B2, “Benzimidazole inhibitors of PAD enzymes” (BRISTOL-MYERS SQUIBB COMPANY, priority 2018, dated 2026)

These compounds were tested against human PAD4 (hPAD4) (Homo sapiens, UniProt Q9UM07) (assay: RFMS human PAD4 functional assay (rapid-fire mass spectrum)). Conditions: 5 nM hPAD4 enzyme, 250 μM BAEE, 50 μM Calcium; 30 min preincubation, 90 min reaction at 37° C.
Format: biochemical
In short: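 PAD4 (10 nM) preincubated 30 min with compound (top final 50 μM), then BAEE substrate added in pH 7.5 HEPES buffer with DTT, 50 μM calcium, TPEN; 90 min at 37° C. After TCA quench, citrulline derivatized with phenyl glyoxal (4 mM final, 30 min, 37° C) and quantified by RapidFire MS against internal standard.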

Sequence of human PAD4 (hPAD4) (Q9UM07 whole entry): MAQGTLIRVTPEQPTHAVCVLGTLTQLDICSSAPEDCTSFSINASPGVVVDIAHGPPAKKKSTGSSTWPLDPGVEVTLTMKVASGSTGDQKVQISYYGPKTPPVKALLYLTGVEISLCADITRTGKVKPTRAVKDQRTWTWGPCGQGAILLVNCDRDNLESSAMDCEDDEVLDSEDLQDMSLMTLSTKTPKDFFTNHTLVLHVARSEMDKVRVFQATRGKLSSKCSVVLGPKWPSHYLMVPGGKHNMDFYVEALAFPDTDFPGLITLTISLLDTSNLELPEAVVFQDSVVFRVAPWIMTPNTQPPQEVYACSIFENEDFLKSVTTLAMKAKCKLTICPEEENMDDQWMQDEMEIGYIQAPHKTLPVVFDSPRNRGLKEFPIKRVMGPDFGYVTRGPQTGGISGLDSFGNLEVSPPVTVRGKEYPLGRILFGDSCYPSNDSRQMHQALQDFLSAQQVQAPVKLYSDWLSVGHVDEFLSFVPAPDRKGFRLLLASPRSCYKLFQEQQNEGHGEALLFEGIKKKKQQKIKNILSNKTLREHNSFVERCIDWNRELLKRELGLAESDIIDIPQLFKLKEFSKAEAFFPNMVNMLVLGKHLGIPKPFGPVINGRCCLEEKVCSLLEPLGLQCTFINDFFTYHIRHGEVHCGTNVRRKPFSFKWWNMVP

Row | IC50 [µM] | SMILES
1 | 0.187 | COc1cc(C(=O)N2C[C@H]3CC[C@@H]2[C@@H]3N)cc2nc(-c3cc4cc(Cl)ccc4n3C)n(CC3CN(c4ccnc(C)n4)C3)c12 [Example 61, (1R,4R,7R)-2-[2-(5-chloro-1-methyl-1H-indol-2-yl)-7-methoxy-1-{[1-(2-methylpyrimidin-4-yl)azetidin-3-yl]methyl}-1H-1,3-benzodiazole-5-carbonyl]-2-azabicyclo[2.2.1]heptan-7-amine]
2 | 0.023 | COc1cc(C(=O)N2C[C@H](N)C[C@@H](F)C2)cc2nc(-c3cc4ccccc4n3CC3CC3)n(CC3CN(C(=O)c4cccc(F)c4)C3)c12 [Example 157, (3R,5R)-1-{2-[1-(cyclopropylmethyl)-1H-indol-2-yl]-1-{[1-(3-fluorobenzoyl)azetidin-3-yl]methyl}-7-methoxy-1H-1,3-benzodiazol-5-carbonyl}-5-fluoropiperidin-3-amine]
3 | 0.125 | COc1cc(C(=O)N2C[C@H]3CC[C@@H]2[C@@H]3N)cc2nc(-c3cc4cccnc4n3CC3CC3)n(C3CN(C(=O)c4ccnc(N)n4)C3)c12 [Example 101, (1R,4R,7R)-2-{1-[1-(2-aminopyrimidine-4-carbonyl)azetidin-3-yl]-2-[1-(cyclopropylmethyl)-1H-pyrrolo[2,3-b]pyridin-2-yl]-7-methoxy-1H-1,3-benzodiazole-5-carbonyl}-2-azabicyclo[2.2.1]heptan-7-amine]
4 | 0.014 | COc1cc(C(=O)N2CC3CCC2[C@@H]3N)cc2nc(-c3cc4ccccc4n3CC3CC3)n(CC3CN(C(=O)c4cc(C)nc(C)c4)C3)c12 (stereo partly drawn) [Example 418, (7R)-2-{2-[1-(cyclopropylmethyl)-1H-indol-2-yl]-1-{[1-(2,6-dimethylpyridine-4-carbonyl)azetidin-3-yl]methyl}-7-methoxy-1H-1,3-benzodiazole-5-carbonyl}-2-azabicyclo[2.2.1]heptan-7-amine]
5 | 0.02 | COc1cc(C(=O)N2CC3CCC2[C@@H]3N)cc2nc(-c3cc4cccnc4n3CC3CC3)n(Cc3cnn(-c4cccc(O)n4)c3)c12 (stereo partly drawn) [Example 353, 6-[4-({5-[(7R)-7-amino-2-azabicyclo[2.2.1]heptane-2-carbonyl]-2-[1-(cyclopropylmethyl)-1H-pyrrolo[2,3-b]pyridin-2-yl]-7-methoxy-1H-1,3-benzodiazol-1-yl}methyl)-1H-pyrazol-1-yl]pyridin-2-ol]
6 | 0.044 | Cc1cc(C(=O)N2CC3CCC2[C@@H]3N)cc2nc(-c3cc4ccccc4n3CC3CC3)n(CC3CN(C(=O)c4ccc(C#N)cc4)C3)c12 (stereo partly drawn) [Example 449, 4-[3-({5-[(7R)-7-amino-2-azabicyclo[2.2.1]heptane-2-carbonyl]-2-[1-(cyclopropylmethyl)-1H-indol-2-yl]-7-methyl-1H-1,3-benzodiazol-1-yl}methyl)azetidine-1-carbonyl]benzonitrile]
7 | 0.069 | COc1cc(C(=O)N2C[C@H]3CC[C@@H]2[C@@H]3N)cc2nc(-c3cc4cccnc4n3CC3CC3)n(CC3CN(C(=O)c4ccnc(C)n4)C3)c12 [Example 119, (1R,4R,7R)-2-{2-[1-(cyclopropylmethyl)-1H-pyrrolo[2,3-b]pyridin-2-yl]-7-methoxy-1-{[1-(2-methylpyrimidine-4-carbonyl)azetidin-3-yl]methyl}-1H-1,3-benzodiazole-5-carbonyl}-2-azabicyclo[2.2.1]heptan-7-amine]
8 | 0.021 | COc1cc(C(=O)N2CC3CCC2[C@@H]3N)cc2nc(-c3cc4ccccc4n3CC3CC3)n(CC3CN(C(=O)c4ccnc(C)c4)C3)c12 (stereo partly drawn) [Example 421, (7R)-2-{2-[1-(cyclopropylmethyl)-1H-indol-2-yl]-7-methoxy-1-{[1-(2-methylpyridine-4-carbonyl)azetidin-3-yl]methyl}-1H-1,3-benzodiazole-5-carbonyl}-2-azabicyclo[2.2.1]heptan-7-amine]
9 | 0.021 | COc1cc(C(=O)N2C[C@H]3CC[C@@H]2[C@@H]3N)cc2nc(-c3cc4ccc(Cl)cc4n3CC3CC3)n(CC3CN(c4ccnc(C)n4)C3)c12 [Example 9, (1R,4R,7R)-2-{2-[6-chloro-1-(cyclopropylmethyl)-1H-indol-2-yl]-7-methoxy-1-{[1-(2-methylpyrimidin-4-yl)azetidin-3-yl]methyl}-1H-1,3-benzodiazole-5-carbonyl}-2-azabicyclo[2.2.1]heptan-7-amine]
10 | 1.15 | COc1cc(C(=O)N2CC3CCC2[C@@H]3N)cc2nc(-c3csc4ccc(Cl)cc34)n(CC3CN(c4cncc(C#N)c4)C3)c12 (stereo partly shown) [Example 316]
11 | 0.014 | COc1cc(C(=O)N2CC3CCC2[C@@H]3N)cc2nc(-c3cc4ccccc4n3CC3CC3)n(Cc3cnn(-c4ccccn4)c3)c12 (stereo partly drawn) [Example 348, (7R)-2-{2-[1-(cyclopropylmethyl)-1H-indol-2-yl]-7-methoxy-1-{[1-(pyridin-2-yl)-1H-pyrazol-4-yl]methyl}-1H-1,3-benzodiazoie-5-carbonyl}-2-azabicyclo[2.2.1]heptan-7-amine]
12 | 0.031 | COc1cc(C(=O)N2C[C@H]3CC[C@@H]2[C@@H]3N)cc2nc(-c3cc4ccccc4n3CC3CC3)n(CC3CN(C(=O)c4ccc(Cl)cc4)C3)c12 [Example 166, (1R,4R,7R)-2-(1-{[1-(4-chlorobenzoyl)azetidin-3-yl]methyl}-2-[1-(cyclopropylmethyl)-1H-indol-2-yl]-7-methoxy-1H-1,3-benzodiazole-5-carbonyl)-2-azabicyclo[2.2.1]heptan-7-amine]
13 | 0.028 | COc1cc(C(=O)N2CC3CCC2[C@@H]3N)cc2nc(-c3cc4cccnc4n3CC3CC3)n(CC3CN(C(=O)c4ccccc4Cl)C3)c12 (stereo partly drawn) [Example 428, (7R)-2-(1-{[1-(2-chlorobenzoyl)azetidin-3-yl]methyl}-2-[1-(cyclopropylmethyl)-1H-pyrrolo[2,3-b]pyridin-2-yl]-7-methoxy-1H-1,3-benzodiazole-5-carbonyl)-2-azabicyclo[2.2.1]heptan-7-amine]
14 | 0.03 | Cn1cc(Cn2c(-c3cc4ccccc4n3CC3CC3)nc3cc(C(=O)N4CC5CCC4[C@@H]5N)cc(Cl)c32)cn1 (stereo partly drawn) [Example 484, (7R)-2-{7-chloro-2-[1-(cyclopropylmethyl)-1H-indol-2-yl]-1-[(1-methyl-1H-pyrazol-4-yl)methyl]-1H-1,3-benzodiazole-5-carbonyl}-2-azabicyclo[2.2.1]heptan-7-amine]
15 | 0.263 | COc1cc(C(=O)N2CCC[C@@H](N)C2)cc2nc(-c3cc4cccnc4n3CC3CC3)n(CC3CN(C(=O)c4ccccc4)C3)c12 [Example 413, (3R)-1-{1-[(1-benzoylazetidin-3-yl)methyl]-2-[1-(cyclopropylmethyl)-1H-pyrrolo[2,3-b]pyridin-2-yl]-7-methoxy-1H-1,3-benzodiazole-5-carbonyl}piperidin-3-amine]
16 | 0.109 | COc1cc(C(=O)N2CC3CCC2[C@@H]3N)cc2nc(-c3cc4cccnc4n3CC3CC3)n(CC3CN(C(=O)[C@@H]4C[C@H]4C)C3)c12 (stereo partly drawn) [Example 128, (1R,4R,7R)-2-{2-[1-(cyclopropylmethyl)-1H-pyrrolo[2,3-b]pyridin-2-yl]-7-methoxy-1-({1-[(1R,2R)-2-methylcyclopropanecarbonyl]aze-tidin-3-yl}methyl)-1H-1,3-benzodiazole-5-carbonyl}-2-azabicyclo[2.2.1]heptan-7-amine]
17 | 0.083 | Cn1cc(Cn2c(-c3cc4cccnc4n3CC3CC3)nc3cc(C(=O)N4CC5CCC4[C@@H]5N)cc(Cl)c32)cn1 (stereo partly drawn) [Example 493, (7R)-2-{7-chloro-2-[1-(cyclopropylmethyl)-1H-pyrrolo[2,3-b]pyridin-2-yl]-1-[(1-methyl-1H-pyrazol-4-yl)methyl]-1H-1,3-benzodiazole-5-carbonyl}-2-azabicyclo[2.2.1]heptan-7-amine]
18 | 0.057 | COc1nccc(N2CC(Cn3c(-c4cc5cccnc5n4CC4CC4)nc4cc(C(=O)N5C[C@H]6CC[C@@H]5[C@@H]6N)cc(OC)c43)C2)n1 [Example 20, (1R,4R,7R)-2-{2-[1-(cyclopropylmethyl)-1H-pyrrolo[2,3-b]pyridin-2-yl]-7-methoxy-1-{[1-(2-methoxypyrimidin-4-yl)azetidin-3-yl]methyl}-1H-1,3-benzodiazole-5-carbonyl}-2-azabicyclo[2.2.1]heptan-7-amine]
19 | 0.046 | COc1cc(C(=O)N2C[C@H]3CC[C@@H]2[C@@H]3N)cc2nc(-c3cc4cccnc4n3CC3CC3)n(CC3CN(c4nc(C#N)ncc4C#N)C3)c12 [Example 14, 4-[3-({5-[(1R,4R,7R)-7-amino-2-azabicyclo[2.2.1]heptane-2-carbonyl]-2-[1-(cyclopropylmethyl)-1H-pyrrolo[2,3-b]pyridin-2-yl]-7-methoxy-1H-1,3-benzodiazol-1-yl}methyl)azetidin-1-yl]pyrimidine-2,5-dicarbonitrile]
20 | 1.23 | COc1cc(C(=O)N2C[C@H](N)C[C@@H](F)C2)cc2nc(-c3cc4ccccc4n3CC3CC3)n(Cc3ccncc3)c12 [Example 287, (3R,5R)-1-{2-[1-(cyclopropylmethyl)-1H-indol-2-yl]-7-methoxy-1-[(pyridin-4-yl)methyl]-1H-1,3-benzodiazole-5-carbonyl}-5-fluoropiperidin-3-amine]
21 | 0.041 | COc1cc(C(=O)N2CC3CCC2[C@@H]3N)cc2nc(-c3cc4ccccc4n3CC3CC3)n(Cc3cnn(-c4cccnc4O)c3)c12 (stereo partly drawn) [Example 384, 3-[4-({5-[(7R)-7-amino-2-azabicyclo[2.2.1]heptane-2-carbonyl]-2-[1-(cyclopropylmethyl)-1H-indol-2-yl]-7-methoxy-1H-1,3-benzodiazol-1-yl}methyl)-1H-pyrazol-1-yl]pyridin-2-ol]
22 | 0.014 | COc1cc(C(=O)N2CC3CCC2[C@@H]3N)cc2nc(-c3cc4cccnc4n3CC3CC3)n(CC3CN(C(=O)[C@H]4C[C@@H]4c4ccccc4)C3)c12 (stereo partly drawn) [Example 103, (1R,4R,7R)-2-{2-[1-(cyclopropylmethyl)-1H-pyrrolo[2,3-b]pyridin-2-yl]-7-methoxy-1-({1-[(1S,2S)-2-phenylcyclopropanecarbonyl]aze-tidin-3-yl}-methyl)-1H-1,3-benzodiazole-5-carbonyl}-2-azabicyclo[2.2.1]heptan-7-amine]
